Laboratory results from patent US4247712A, “Preservation of aqueous systems with 2-chloro-3-oxobutyramide derivatives” (Givaudan Corporation, priority 1979, dated 1981).
Converted amounts (≈) assume the structure as drawn. Read-outs that look alike come from different tables or passages of the source.

What was measured:
Format in all cases: cell-based
Aspergillus niger [1] = test: General antimicrobial activity, 5-fold serial dilution test in agar (MIC); settings: 168 h, 28° C., seven days, growth only at lower concentration of range, read-out: minimum inhibitory concentration (MIC), F1
Description: (§1) General antibacterial and antifungal activity was evaluated by a 5-fold serial dilution test in agar. In this test, compounds were prepared as 6% solutions in dimethylformamide or ethanol. The 6% solution was then 5-fold serially diluted in test tubes to give the desired concentrations when mixed with agar and poured into sterile Petri dishes. Tryptone glucose extract agar was used for the bacterial testing; mildew glucose agar for the fungal testing. The bacterial plates were spot inoculated with 24-hour nutrient broth cultures and incubated at 37° C. for 48 hours. The fungal plates were spot inoculated with spore suspensions and incubated at 28° C. for seven days. At the end of the incubation periods, all plates were examined for growth. The minimum inhibitory concentration (MIC) for each organism is expressed in Table I. In the ranges presented, growth is observed only at the lower concentration.
(§2) The activity is presented in Tabular Form (Table I) using the following key.

Aspergillus oryzae = test: as above; settings: 168 h, 28° C., seven days, growth only at lower concentration of range, read-out: minimum inhibitory concentration (MIC), F2
Description: as §1, §2

Aureobasidium pullulans = test: as above; settings: 168 h, 28° C., seven days, growth only at lower concentration of range, read-out: minimum inhibitory concentration (MIC), F4
Description: as §1, §2

Bacillus subtilis = test: as above; settings: 37° C., 48 hours, growth only at lower concentration of range, read-out: minimum inhibitory concentration (MIC), B5
Description: as §1, §2

Escherichia coli = test: as above; settings: 37° C., 48 hours, growth only at lower concentration of range, read-out: minimum inhibitory concentration (MIC), B2
Description: as §1, §2

Penicillium piscarium = test: as above; settings: 168 h, 28° C., seven days, growth only at lower concentration of range, read-out: minimum inhibitory concentration (MIC), F3
Description: as §1, §2

Proteus vulgaris = test: as above; settings: 37° C., 48 hours, growth only at lower concentration of range, read-out: minimum inhibitory concentration (MIC), B4
Description: as §1, §2

Pseudomonas aeruginosa [2] = test: as above; settings: 37° C., 48 hours, growth only at lower concentration of range, read-out: minimum inhibitory concentration (MIC), B3
Description: as §1, §2

Staphylococcus aureus = test: as above; settings: 37° C., 48 hours, growth only at lower concentration of range, read-out: minimum inhibitory concentration (MIC), B1
Description: as §1, §2

Aspergillus niger [3] = test: Utility as a cosmetic preservative (cosmetic lotion); settings: weekly reinoculation
Description: (§3) The 2-Chloro-3-oxobutyramide derivatives are effective cosmetic preservatives. Two-fold serial dilutions of 6% solutions of the 2-haloacetoacetic acid derivatives in dimethylformamide were added to a cosmetic lotion of the following formulation: |Stearic acid 1.4 g |Arlacel 60 (sorbitan |monostearate) 0.7 g |Tween 20 Polyoxethylene |(20) sorbitan |monostearate 1.6 g |Distilled water 94.0 g The lotions were inoculated with both Pseudomonas aeruginosa and Aspergillus niger and incubated at 28° C. At weekly intervals, the lotions were examined for microorganisms by conventional streak-plate methods or by macroscopic observation. The lotions were then reinoculated with the test organisms and reincubated.

Pseudomonas aeruginosa [4] = test: as above; settings: weekly reinoculation
Description: as §3

Pseudomonas aeruginosa [5] = test: Utility in water and oil emulsions (3.3% cutting oil emulsions); settings: 28° C., weekly reinoculation, read-out: Minimum Inhibitory Concentration Range
Description: The utility of the 2-chloro-3-oxobutyramide derivatives in water and oil emulsions is illustrated below using a commercially available cutting oil. In running these tests, two-fold serial dilutions of 6% solutions of the compound in dimethylformamide was added to 3.3% cutting oil emulsions. The emulsions were prepared by diluting with water a commercially available cutting oil concentrate. The emulsions were inoculated with a culture of Pseudomonas aeruginosa and incubated at 28° C. on a rotary shaker. At weekly intervals, the emulsions were examined for bacteria by conventional streak-plate methods. The emulsions were then reinoculated with Pseudomonas aeruginosa and reincubated. […] indicate the activity range for that compound.

A. niger = test: Effectiveness as slimicide for pulp and paper mill water systems; settings: range: growth at lower, none at higher, 62.5 = lowest concentration tested, no growth at it; for MIC: Aspergillus niger, week 1, 28° C., read-out: Effectiveness as slimicide (inhibitory concentration range)
Description: (§4) Various quantities of a 6% solution of this compound in dimethylformamide were incorporated into 24 ml of a test substrate composed as follows: 84.4 g Whatman No. 2 powdered cellulose 2.6 g Sodium nitrate 1.0 g Calcium sulfate 6.5 g Maltose 1.0 g Nutrient Broth, Difco 10.0 ml Mersize Rm […] (Monsanto) 2.5 ml 2% Alum 900 ml Distilled water The samples were inoculated with four different organisms and incubated at 28° C. At weekly intervals the samples were examined for the presence of microbial growth and reinoculated during a total incubation period of four weeks.

E. aerogenes = test: as above; settings: Klebsiella aerogenes, range: growth at lower, read-out: Effectiveness as slimicide (inhibitory concentration range)
Description: as §4

P. aeruginosa = test: as above; settings: 62.5 = lowest concentration tested, no growth at it; for MIC: Pseudomonas aeruginosa, week 1, 28° C., read-out: Effectiveness as slimicide (inhibitory concentration range)
Description: as §4

P. piscarium = test: as above; settings: read-out: Effectiveness as slimicide (inhibitory concentration range)
Description: as §4

[6] = Week 1, 3.3% cutting oil emulsion
[7] = Week 2, 3.3% cutting oil emulsion
[8] = Week 3, 3.3% cutting oil emulsion
[9] = Week 4, 3.3% cutting oil emulsion
[10] = week 1, 28° C., none at higher, 62.5 = lowest concentration tested, no growth at it
[11] = week 2, 28° C., none at higher, 62.5 = lowest concentration tested, no growth at it
[12] = week 3, 28° C., none at higher concentration
[13] = week 4, 28° C., none at higher concentration
[14] = week 1, 28° C., 62.5 = lowest concentration tested, no growth at it
[15] = week 2, 28° C., range: growth at lower, none at higher concentration
[16] = week 3, 28° C., range: growth at lower, none at higher concentration
[17] = week 4, 28° C., range: growth at lower, none at higher concentration

MIC (Aspergillus niger [1]) [µg/mL] | MIC (Aspergillus oryzae) [µg/mL] | MIC (Aureobasidium pullulans) [µg/mL] | MIC (Bacillus subtilis) [µg/mL] | MIC (Escherichia coli) [µg/mL] | MIC (Penicillium piscarium) [µg/mL] | MIC (Proteus vulgaris) [µg/mL] | MIC (Pseudomonas aeruginosa [2]) [µg/mL] | MIC (Staphylococcus aureus) [µg/mL] | MIC (Pseudomonas aeruginosa [5]; [6]) [µg/mL] | MIC (Pseudomonas aeruginosa [5]; [7]) [µg/mL] | MIC (Pseudomonas aeruginosa [5]; [8]) [µg/mL] | Compound | minimum inhibitory concentration effective in preventing microbial growth (Aspergillus niger [3]; Week 1, 28° C.) | minimum inhibitory concentration effective in preventing microbial growth (Aspergillus niger [3]; Week 2, 28° C.) | minimum inhibitory concentration effective in preventing microbial growth (Aspergillus niger [3]; Week 3, 28° C.) | minimum inhibitory concentration effective in preventing microbial growth (Aspergillus niger [3]; Week 4, 28° C.) | minimum inhibitory concentration effective in preventing microbial growth (Pseudomonas aeruginosa [4]; Week 1, 28° C.) | minimum inhibitory concentration effective in preventing microbial growth (Pseudomonas aeruginosa [4]; Week 2, 28° C.) | minimum inhibitory concentration effective in preventing microbial growth (Pseudomonas aeruginosa [4]; Week 3, 28° C.) | minimum inhibitory concentration effective in preventing microbial growth (Pseudomonas aeruginosa [4]; Week 4, 28° C.) | also measured
76.8 to 384 (≈ 432 to 2160 µM) | 76.8 to 384 (≈ 432 to 2160 µM) | 76.8 to 384 (≈ 432 to 2160 µM) | 76.8 to 384 (≈ 432 to 2160 µM) | 15.3 to 76.8 (≈ 86.2 to 432 µM) | 76.8 to 384 (≈ 432 to 2160 µM) | 76.8 to 384 (≈ 432 to 2160 µM) | 15.3 to 76.8 (≈ 86.2 to 432 µM) | 76.8 to 384 (≈ 432 to 2160 µM) | 32 to 63 (≈ 180 to 355 µM) | 63 to 125 (≈ 355 to 704 µM) | 125 to 500 (≈ 704 to 2820 µM) | CC(=O)NC(=O)C(Cl)C(C)=O (centres unmarked) [N-Acetyl-2-Chloro-3-oxobutyramide, N-Acetyl-2-chloro-3-oxobutyramide] | 5 (63-125 mcg/gm) | 4 (125-250 mcg/gm) | 3 (250-500 mcg/gm) | 2 (500-1000 mcg/gm) | 5 (63-125 mcg/gm) | 5 (63-125 mcg/gm) | 4 (125-250 mcg/gm) | 4 (125-250 mcg/gm) | MIC (Pseudomonas aeruginosa [5]; [9]): 125 to 500 µg/mL (≈ 704 to 2820 µM); MIC (A. niger): 62.5 to 125 µg/mL (≈ 352 to 704 µM); Effectiveness as slimicide (inhibitory concentration range) (A. niger; week 2, 28° C.): 62.5 to 125 µg/mL; Effectiveness as slimicide (inhibitory concentration range) (A. niger; week 3, 28° C.): 62.5 to 125 µg/mL; Effectiveness as slimicide (inhibitory concentration range) (A. niger; week 4, 28° C.): 62.5 to 125 µg/mL; MIC (E. aerogenes; [10]): 62.5 to 125 µg/mL (≈ 352 to 704 µM); MIC (E. aerogenes; [11]): 125 to 250 µg/mL (≈ 704 to 1410 µM); MIC (E. aerogenes; [12]): 250 to 500 µg/mL (≈ 1410 to 2820 µM); MIC (E. aerogenes; [13]): 250 to 500 µg/mL (≈ 1410 to 2820 µM); MIC (P. aeruginosa): 62.5 µg/mL (≈ 352 µM); Effectiveness as slimicide (inhibitory concentration range) (P. aeruginosa; week 2, 28° C.): 62.5 µg/mL; Effectiveness as slimicide (inhibitory concentration range) (P. aeruginosa; week 3, 28° C.): 62.5 µg/mL; Effectiveness as slimicide (inhibitory concentration range) (P. aeruginosa; week 4, 28° C.): 62.5 µg/mL; MIC (P. piscarium; [14]): 62.5 µg/mL (≈ 352 µM); MIC (P. piscarium; [15]): 62.5 to 125 µg/mL (≈ 352 to 704 µM); MIC (P. piscarium; [16]): 62.5 to 125 µg/mL (≈ 352 to 704 µM); MIC (P. piscarium; [17]): 62.5 to 125 µg/mL (≈ 352 to 704 µM)
15.3 to 76.8 (≈ 113 to 567 µM) | 15.3 to 76.8 (≈ 113 to 567 µM) | 15.3 to 76.8 (≈ 113 to 567 µM) | 15.3 to 76.8 (≈ 113 to 567 µM) | 15.3 to 76.8 (≈ 113 to 567 µM) | 15.3 to 76.8 (≈ 113 to 567 µM) | 15.3 to 76.8 (≈ 113 to 567 µM) | 15.3 to 76.8 (≈ 113 to 567 µM) | 15.3 to 76.8 (≈ 113 to 567 µM) | 8 to 16 (≈ 59 to 118 µM) | 63 to 125 (≈ 465 to 922 µM) | 63 to 125 (≈ 465 to 922 µM) | CC(=O)C(Cl)C(N)=O (centres unmarked) [2-Chloro-3-oxobutyramide] | 5 (63-125 mcg/gm) | 5 (63-125 mcg/gm) | 4 (125-250 mcg/gm) | 2 (500-1000 mcg/gm) | 5 (63-125 mcg/gm) | 5 (63-125 mcg/gm) | 4 (125-250 mcg/gm) | 4 (125-250 mcg/gm) | MIC (Pseudomonas aeruginosa [5]; [9]): 63 to 125 µg/mL (≈ 465 to 922 µM); MIC (A. niger): 62.5 µg/mL (≈ 461 µM); Effectiveness as slimicide (inhibitory concentration range) (A. niger; week 2, 28° C.): 62.5 µg/mL; Effectiveness as slimicide (inhibitory concentration range) (A. niger; week 3, 28° C.): 62.5 µg/mL; Effectiveness as slimicide (inhibitory concentration range) (A. niger; week 4, 28° C.): 62.5 µg/mL; MIC (E. aerogenes; [10]): 62.5 µg/mL (≈ 461 µM); MIC (E. aerogenes; [11]): 62.5 µg/mL (≈ 461 µM); MIC (E. aerogenes; [12]): 62.5 to 125 µg/mL (≈ 461 to 922 µM); MIC (E. aerogenes; [13]): 62.5 to 125 µg/mL (≈ 461 to 922 µM); MIC (P. aeruginosa): 62.5 µg/mL (≈ 461 µM); Effectiveness as slimicide (inhibitory concentration range) (P. aeruginosa; week 2, 28° C.): 62.5 µg/mL; Effectiveness as slimicide (inhibitory concentration range) (P. aeruginosa; week 3, 28° C.): 62.5 µg/mL; Effectiveness as slimicide (inhibitory concentration range) (P. aeruginosa; week 4, 28° C.): 62.5 µg/mL; MIC (P. piscarium; [14]): 62.5 µg/mL (≈ 461 µM); MIC (P. piscarium; [15]): 62.5 to 125 µg/mL (≈ 461 to 922 µM); MIC (P. piscarium; [16]): 125 to 250 µg/mL (≈ 922 to 1840 µM); MIC (P. piscarium; [17]): 125 to 250 µg/mL (≈ 922 to 1840 µM)
76.8 to 384 (≈ 370 to 1850 µM) | 76.8 to 384 (≈ 370 to 1850 µM) | 76.8 to 384 (≈ 370 to 1850 µM) | 76.8 to 384 (≈ 370 to 1850 µM) | 76.8 to 384 (≈ 370 to 1850 µM) | 76.8 to 384 (≈ 370 to 1850 µM) | 76.8 to 384 (≈ 370 to 1850 µM) | 76.8 to 384 (≈ 370 to 1850 µM) | 76.8 to 384 (≈ 370 to 1850 µM) | 32 to 63 (≈ 154 to 303 µM) | 63 to 125 (≈ 303 to 602 µM) | 63 to 125 (≈ 303 to 602 µM) | CCOC(=O)NC(=O)C(Cl)C(C)=O (centres unmarked) [R1=H, R2=COOC2 H5, N-Carboethoxy-2-chloroacetoacetamide] | 4 (125-250 mcg/gm) | 3 (250-500 mcg/gm) | 3 (250-500 mcg/gm) | 3 (250-500 mcg/gm) | 5 (63-125 mcg/gm) | 4 (125-250 mcg/gm) | 4 (125-250 mcg/gm) | 4 (125-250 mcg/gm) | MIC (Pseudomonas aeruginosa [5]; [9]): 125 to 500 µg/mL (≈ 602 to 2410 µM)
